# Measured values: patent publication US20100003342A1, “Aqueous solution and method of prolonging life of residual chlorine in aqueous solution” (priority 2006, published 2010)
# Where two headings read alike, the source gives them in different places.
# Format: physicochemical
# Details: KI method
Structure (SMILES),Residual chlorine concentration (perchloric acid aqueous solution),Residual chlorine concentration (neutral pH environment)
[O-][Cl+3]([O-])([O-])O [perchloric acid],zero,–
[Na+].[O-][Cl+][O-] [NaClO2],–,several
